# Experimental data from ChEMBL document CHEMBL3588755, “hERG Channel Inhibitory Daphnane Diterpenoid Orthoesters and Polycephalones A and B with Unprecedented Skeletons from Gnidia polycephala” (J Nat Prod, 2015).
# Assays:
# [1] = Retention time of the compound by HPLC method; format: physicochemical
# hERG (KCNH2) = hERG (KCNH2) (Homo sapiens, UniProt Q12809); assay: Inhibition of human ERG expressed in Xenopus laevis oocytes at 100 uM incubated for 3 mins at holding potential of -100 mV followed by depolarization to +20 mV and repolarization to -50 mV by two-microelectrode voltage clamp assay; format: cell-based; conditions: Xenopus laevis oocytes expressing human ERG
# Sequence of hERG (KCNH2) (Q12809 whole entry): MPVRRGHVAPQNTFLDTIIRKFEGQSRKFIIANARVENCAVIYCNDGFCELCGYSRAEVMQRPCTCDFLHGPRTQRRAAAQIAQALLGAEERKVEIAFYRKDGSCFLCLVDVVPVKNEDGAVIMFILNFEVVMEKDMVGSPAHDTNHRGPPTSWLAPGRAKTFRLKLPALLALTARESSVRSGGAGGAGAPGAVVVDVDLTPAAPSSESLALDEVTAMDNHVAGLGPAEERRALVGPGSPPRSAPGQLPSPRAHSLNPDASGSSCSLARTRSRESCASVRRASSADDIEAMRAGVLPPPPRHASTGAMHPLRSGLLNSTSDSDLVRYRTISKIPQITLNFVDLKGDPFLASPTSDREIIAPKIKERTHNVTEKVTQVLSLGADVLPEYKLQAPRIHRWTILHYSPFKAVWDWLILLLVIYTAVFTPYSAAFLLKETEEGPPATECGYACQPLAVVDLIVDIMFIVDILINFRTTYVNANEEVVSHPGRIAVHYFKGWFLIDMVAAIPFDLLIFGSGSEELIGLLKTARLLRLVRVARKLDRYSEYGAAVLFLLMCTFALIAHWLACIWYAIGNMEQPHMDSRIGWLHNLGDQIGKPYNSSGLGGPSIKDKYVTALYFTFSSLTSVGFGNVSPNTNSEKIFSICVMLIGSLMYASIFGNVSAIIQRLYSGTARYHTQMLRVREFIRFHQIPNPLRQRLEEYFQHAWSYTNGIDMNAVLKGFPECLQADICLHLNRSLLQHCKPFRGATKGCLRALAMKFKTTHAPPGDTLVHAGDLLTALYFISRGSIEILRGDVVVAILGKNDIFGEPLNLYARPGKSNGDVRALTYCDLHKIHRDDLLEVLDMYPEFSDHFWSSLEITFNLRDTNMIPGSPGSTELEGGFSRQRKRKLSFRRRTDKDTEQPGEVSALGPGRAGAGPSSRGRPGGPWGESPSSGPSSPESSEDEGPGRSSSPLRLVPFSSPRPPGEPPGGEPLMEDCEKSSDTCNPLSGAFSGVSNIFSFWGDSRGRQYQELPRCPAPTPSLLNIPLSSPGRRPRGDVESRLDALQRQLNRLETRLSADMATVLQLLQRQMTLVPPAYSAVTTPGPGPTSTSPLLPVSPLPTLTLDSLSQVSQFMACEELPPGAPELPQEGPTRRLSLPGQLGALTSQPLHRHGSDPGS
SMILES,Retention_time [1] [min],"inhibition at 0.05 h, 100 µM (hERG (KCNH2)) [%]"
C=C(C)[C@@]12C[C@@H](C)[C@@]34OC(/C=C\C=C/CCCCC)(O[C@@H]1[C@@H]3[C@@H]1O[C@]1(CO)[C@@H](O)[C@]1(O)C(=O)C(C)=C[C@H]14)O2,18.9,55.4
C=C(C)[C@]12OC3(/C=C\C=C/CCCCC)O[C@@H]1[C@@H]1[C@@H]4O[C@]4(CO)[C@@H](O)[C@]4(O)C(=O)C(C)=C[C@H]4[C@@]1(O3)[C@H](C)[C@H]2OC(=O)c1ccccc1,23.5,42.5
C=C(C)[C@]12OC3(/C=C/C=C/CCCCC)O[C@@H]1[C@@H]1[C@@H]4O[C@]4(CO)[C@@H](O)[C@]4(O)C(=O)C(C)=C[C@H]4[C@@]1(O3)[C@H](C)[C@H]2OC(=O)c1ccccc1,25.5,51.3
